Assays:
Test in all cases: KINOMEscan scanMAX
Format in all cases: binding
Settings in all cases: read-out: Percent Control
[1] = molecular target: T1, ABL1(F317L)-nonphosphorylated (Homo sapiens, UniProt P00519, F317L)
T1 construct: purchased Eurofins Discovery (DiscoverX KINOMEscan scanMAX)
Description: (§1) The kinome-wide binding assay was performed by Eurofins Discovery using the scanMAX screening platform. More information can be found on the Eurofins Discovery Web site.

[2] = molecular target: T2, ADCK3 (Homo sapiens, UniProt Q8NI60)
T2 construct: purchased Eurofins Discovery (DiscoverX KINOMEscan scanMAX)
Description: as §1

[3] = molecular target: T3, ALK(L1196M) (Homo sapiens, UniProt Q9UM73, L1196M)
T3 construct: purchased Eurofins Discovery (DiscoverX KINOMEscan scanMAX)
Description: as §1

[4] = molecular target: T4, CASK (Homo sapiens, UniProt O14936)
T4 construct: purchased Eurofins Discovery (DiscoverX KINOMEscan scanMAX)
Description: as §1

[5] = molecular target: T5, CDK2 (Homo sapiens, UniProt P24941)
T5 construct: purchased Eurofins Discovery (DiscoverX KINOMEscan scanMAX)
Description: as §1

[6] = molecular target: T6, CDK3 (Homo sapiens, UniProt Q00526)
T6 construct: purchased Eurofins Discovery (DiscoverX KINOMEscan scanMAX)
Description: as §1

[7] = molecular target: T7, CLK2 (Homo sapiens, UniProt P49760)
T7 construct: purchased Eurofins Discovery (DiscoverX KINOMEscan scanMAX)
Description: as §1

[8] = molecular target: T8, CSNK2A2 (Homo sapiens, UniProt P19784)
T8 construct: purchased Eurofins Discovery (DiscoverX KINOMEscan scanMAX)
Description: as §1

[9] = molecular target: T9, EPHA7 (Homo sapiens, UniProt Q15375)
T9 construct: purchased Eurofins Discovery (DiscoverX KINOMEscan scanMAX)
Description: as §1

[10] = molecular target: T10, EPHB1 (Homo sapiens, UniProt P54762)
T10 construct: purchased Eurofins Discovery (DiscoverX KINOMEscan scanMAX)
Description: as §1

[11] = molecular target: T11, ERK5 (Homo sapiens, UniProt Q13164)
T11 construct: purchased Eurofins Discovery (DiscoverX KINOMEscan scanMAX)
Description: as §1

[12] = molecular target: T12, FAK (Homo sapiens, UniProt Q05397)
T12 construct: purchased Eurofins Discovery (DiscoverX KINOMEscan scanMAX)
Description: as §1

[13] = molecular target: T13, LIMK2 (Homo sapiens, UniProt P53671)
T13 construct: purchased Eurofins Discovery (DiscoverX KINOMEscan scanMAX)
Description: as §1

[14] = molecular target: T14, LKB1 (Homo sapiens, UniProt Q15831)
T14 construct: purchased Eurofins Discovery (DiscoverX KINOMEscan scanMAX)
Description: as §1

[15] = molecular target: T15, MARK4 (Homo sapiens, UniProt Q96L34)
T15 construct: purchased Eurofins Discovery (DiscoverX KINOMEscan scanMAX)
Description: as §1

[16] = molecular target: T16, MKNK2 (Homo sapiens, UniProt Q9HBH9)
T16 construct: purchased Eurofins Discovery (DiscoverX KINOMEscan scanMAX)
Description: as §1

[17] = molecular target: T17, MST3 (Homo sapiens, UniProt Q9Y6E0)
T17 construct: purchased Eurofins Discovery (DiscoverX KINOMEscan scanMAX)
Description: as §1

[18] = molecular target: T18, MUSK (Homo sapiens, UniProt O15146)
T18 construct: purchased Eurofins Discovery (DiscoverX KINOMEscan scanMAX)
Description: as §1

[19] = molecular target: T19, PFCDPK1(P.falciparum) (Plasmodium falciparum, UniProt P62344)
T19 construct: purchased Eurofins Discovery (DiscoverX KINOMEscan scanMAX)
Description: as §1

[20] = molecular target: T20, PHKG2 (Homo sapiens, UniProt P15735)
T20 construct: purchased Eurofins Discovery (DiscoverX KINOMEscan scanMAX)
Description: as §1

[21] = molecular target: T21, PIK3C2B (Homo sapiens, UniProt O00750)
T21 construct: purchased Eurofins Discovery (DiscoverX KINOMEscan scanMAX)
Description: as §1

[22] = molecular target: T22, PIK3C2G (Homo sapiens, UniProt O75747)
T22 construct: purchased Eurofins Discovery (DiscoverX KINOMEscan scanMAX)
Description: as §1

[23] = molecular target: T23, PIM2 (Homo sapiens, UniProt Q9P1W9)
T23 construct: purchased Eurofins Discovery (DiscoverX KINOMEscan scanMAX)
Description: as §1

[24] = molecular target: T24, PIP5K2C (Homo sapiens, UniProt Q8TBX8)
T24 construct: purchased Eurofins Discovery (DiscoverX KINOMEscan scanMAX)
Description: as §1

[25] = molecular target: T25, PKAC-beta (Homo sapiens, UniProt P22694)
T25 construct: purchased Eurofins Discovery (DiscoverX KINOMEscan scanMAX)
Description: as §1

[26] = molecular target: T26, PKMYT1 (Homo sapiens, UniProt Q99640)
T26 construct: purchased Eurofins Discovery (DiscoverX KINOMEscan scanMAX)
Description: as §1

[27] = molecular target: T27, PRP4 (Homo sapiens, UniProt Q13523)
T27 construct: purchased Eurofins Discovery (DiscoverX KINOMEscan scanMAX)
Description: as §1

[28] = molecular target: T28, RPS6KA5(Kin.Dom.2-C-terminal) (Homo sapiens, UniProt O75582)
T28 construct: RPS6KA5(Kin.Dom.2-C-terminal); purchased Eurofins Discovery (DiscoverX KINOMEscan scanMAX)
Description: as §1

[29] = molecular target: T29, SIK2 (Homo sapiens, UniProt Q9H0K1)
T29 construct: purchased Eurofins Discovery (DiscoverX KINOMEscan scanMAX)
Description: as §1

[30] = molecular target: T30, TAOK1 (Homo sapiens, UniProt Q7L7X3)
T30 construct: purchased Eurofins Discovery (DiscoverX KINOMEscan scanMAX)
Description: as §1

[31] = molecular target: T31, TNNI3K (Homo sapiens, UniProt Q59H18)
T31 construct: purchased Eurofins Discovery (DiscoverX KINOMEscan scanMAX)
Description: as §1

[32] = molecular target: T32, VPS34 (Homo sapiens, UniProt Q8NEB9)
T32 construct: purchased Eurofins Discovery (DiscoverX KINOMEscan scanMAX)
Description: as §1

[33] = molecular target: T33, WEE1 (Homo sapiens, UniProt P30291)
T33 construct: purchased Eurofins Discovery (DiscoverX KINOMEscan scanMAX)
Description: as §1

[34] = molecular target: T34, WEE2 (Homo sapiens, UniProt P0C1S8)
T34 construct: purchased Eurofins Discovery (DiscoverX KINOMEscan scanMAX)
Description: as §1

T1 sequence (P00519 whole entry F317L): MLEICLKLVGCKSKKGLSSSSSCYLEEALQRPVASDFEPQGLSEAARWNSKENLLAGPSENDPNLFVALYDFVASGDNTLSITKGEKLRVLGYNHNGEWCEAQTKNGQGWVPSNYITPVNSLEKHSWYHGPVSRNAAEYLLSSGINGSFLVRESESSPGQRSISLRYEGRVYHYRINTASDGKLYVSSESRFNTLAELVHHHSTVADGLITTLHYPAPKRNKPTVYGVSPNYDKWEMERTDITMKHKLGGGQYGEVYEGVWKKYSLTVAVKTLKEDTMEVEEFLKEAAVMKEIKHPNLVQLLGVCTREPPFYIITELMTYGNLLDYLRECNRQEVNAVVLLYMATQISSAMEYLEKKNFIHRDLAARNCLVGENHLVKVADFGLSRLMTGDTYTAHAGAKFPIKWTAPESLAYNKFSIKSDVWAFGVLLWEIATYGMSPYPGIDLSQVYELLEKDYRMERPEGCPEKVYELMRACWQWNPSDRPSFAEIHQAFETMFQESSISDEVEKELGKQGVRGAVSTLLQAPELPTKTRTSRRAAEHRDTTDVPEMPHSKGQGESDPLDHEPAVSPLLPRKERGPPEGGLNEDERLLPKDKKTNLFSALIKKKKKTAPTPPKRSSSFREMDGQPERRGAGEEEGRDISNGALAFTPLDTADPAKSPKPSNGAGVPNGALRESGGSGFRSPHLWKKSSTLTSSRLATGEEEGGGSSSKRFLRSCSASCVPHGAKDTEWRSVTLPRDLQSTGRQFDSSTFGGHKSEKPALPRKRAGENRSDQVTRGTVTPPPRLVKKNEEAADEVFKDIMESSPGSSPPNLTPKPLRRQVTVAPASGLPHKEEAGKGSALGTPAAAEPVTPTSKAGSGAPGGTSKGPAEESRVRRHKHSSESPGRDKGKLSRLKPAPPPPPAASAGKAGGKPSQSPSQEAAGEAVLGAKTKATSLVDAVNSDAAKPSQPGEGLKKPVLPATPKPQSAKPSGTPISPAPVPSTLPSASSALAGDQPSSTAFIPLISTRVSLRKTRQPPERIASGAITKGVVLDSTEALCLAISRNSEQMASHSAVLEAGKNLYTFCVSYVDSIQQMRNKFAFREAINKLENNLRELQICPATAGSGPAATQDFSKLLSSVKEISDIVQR
T32 sequence (Q8NEB9 whole entry): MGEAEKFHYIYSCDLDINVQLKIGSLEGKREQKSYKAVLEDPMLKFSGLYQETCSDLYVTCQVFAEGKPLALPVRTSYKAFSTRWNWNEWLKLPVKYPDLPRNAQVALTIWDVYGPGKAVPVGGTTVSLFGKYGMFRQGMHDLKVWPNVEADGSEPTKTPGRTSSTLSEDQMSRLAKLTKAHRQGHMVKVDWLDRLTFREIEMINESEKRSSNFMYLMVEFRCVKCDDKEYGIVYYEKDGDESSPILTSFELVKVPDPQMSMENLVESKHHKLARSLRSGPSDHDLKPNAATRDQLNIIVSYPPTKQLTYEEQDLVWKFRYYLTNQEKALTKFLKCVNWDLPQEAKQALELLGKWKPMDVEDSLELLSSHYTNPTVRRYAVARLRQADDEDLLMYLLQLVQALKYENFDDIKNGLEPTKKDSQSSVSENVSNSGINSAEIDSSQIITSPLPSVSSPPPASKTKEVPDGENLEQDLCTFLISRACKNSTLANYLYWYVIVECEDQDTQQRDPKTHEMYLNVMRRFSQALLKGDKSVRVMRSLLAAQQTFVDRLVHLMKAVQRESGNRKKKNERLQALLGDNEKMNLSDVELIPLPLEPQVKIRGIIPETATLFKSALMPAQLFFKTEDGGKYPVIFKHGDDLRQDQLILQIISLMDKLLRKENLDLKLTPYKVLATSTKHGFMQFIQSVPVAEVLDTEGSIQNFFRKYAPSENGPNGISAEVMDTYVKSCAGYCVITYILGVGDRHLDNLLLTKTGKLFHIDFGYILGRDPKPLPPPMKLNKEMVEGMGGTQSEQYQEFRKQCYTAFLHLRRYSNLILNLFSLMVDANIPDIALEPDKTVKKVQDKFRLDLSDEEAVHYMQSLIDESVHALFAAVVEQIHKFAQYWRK
T18 sequence (O15146 24-869): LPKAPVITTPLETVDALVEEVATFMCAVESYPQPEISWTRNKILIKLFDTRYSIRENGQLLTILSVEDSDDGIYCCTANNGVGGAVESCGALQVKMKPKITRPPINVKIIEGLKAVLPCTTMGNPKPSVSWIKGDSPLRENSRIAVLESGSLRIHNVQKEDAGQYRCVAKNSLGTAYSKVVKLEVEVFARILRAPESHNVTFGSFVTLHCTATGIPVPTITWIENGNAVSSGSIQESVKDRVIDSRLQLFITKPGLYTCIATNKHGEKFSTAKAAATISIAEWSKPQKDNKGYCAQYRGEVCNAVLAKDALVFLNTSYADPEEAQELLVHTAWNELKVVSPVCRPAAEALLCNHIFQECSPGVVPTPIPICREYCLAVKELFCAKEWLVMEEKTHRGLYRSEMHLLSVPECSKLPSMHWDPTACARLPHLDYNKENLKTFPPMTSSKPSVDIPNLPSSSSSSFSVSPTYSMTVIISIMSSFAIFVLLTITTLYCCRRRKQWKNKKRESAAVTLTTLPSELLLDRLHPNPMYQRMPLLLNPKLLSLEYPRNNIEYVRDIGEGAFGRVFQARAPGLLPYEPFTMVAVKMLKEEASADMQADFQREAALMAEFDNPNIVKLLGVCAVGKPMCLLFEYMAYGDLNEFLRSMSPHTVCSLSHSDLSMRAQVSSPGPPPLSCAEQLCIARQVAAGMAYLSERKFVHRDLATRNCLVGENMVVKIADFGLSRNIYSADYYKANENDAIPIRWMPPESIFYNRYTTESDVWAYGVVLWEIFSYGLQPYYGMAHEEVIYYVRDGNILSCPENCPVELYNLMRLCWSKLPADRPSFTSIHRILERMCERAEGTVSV
T12 sequence (Q05397 whole entry): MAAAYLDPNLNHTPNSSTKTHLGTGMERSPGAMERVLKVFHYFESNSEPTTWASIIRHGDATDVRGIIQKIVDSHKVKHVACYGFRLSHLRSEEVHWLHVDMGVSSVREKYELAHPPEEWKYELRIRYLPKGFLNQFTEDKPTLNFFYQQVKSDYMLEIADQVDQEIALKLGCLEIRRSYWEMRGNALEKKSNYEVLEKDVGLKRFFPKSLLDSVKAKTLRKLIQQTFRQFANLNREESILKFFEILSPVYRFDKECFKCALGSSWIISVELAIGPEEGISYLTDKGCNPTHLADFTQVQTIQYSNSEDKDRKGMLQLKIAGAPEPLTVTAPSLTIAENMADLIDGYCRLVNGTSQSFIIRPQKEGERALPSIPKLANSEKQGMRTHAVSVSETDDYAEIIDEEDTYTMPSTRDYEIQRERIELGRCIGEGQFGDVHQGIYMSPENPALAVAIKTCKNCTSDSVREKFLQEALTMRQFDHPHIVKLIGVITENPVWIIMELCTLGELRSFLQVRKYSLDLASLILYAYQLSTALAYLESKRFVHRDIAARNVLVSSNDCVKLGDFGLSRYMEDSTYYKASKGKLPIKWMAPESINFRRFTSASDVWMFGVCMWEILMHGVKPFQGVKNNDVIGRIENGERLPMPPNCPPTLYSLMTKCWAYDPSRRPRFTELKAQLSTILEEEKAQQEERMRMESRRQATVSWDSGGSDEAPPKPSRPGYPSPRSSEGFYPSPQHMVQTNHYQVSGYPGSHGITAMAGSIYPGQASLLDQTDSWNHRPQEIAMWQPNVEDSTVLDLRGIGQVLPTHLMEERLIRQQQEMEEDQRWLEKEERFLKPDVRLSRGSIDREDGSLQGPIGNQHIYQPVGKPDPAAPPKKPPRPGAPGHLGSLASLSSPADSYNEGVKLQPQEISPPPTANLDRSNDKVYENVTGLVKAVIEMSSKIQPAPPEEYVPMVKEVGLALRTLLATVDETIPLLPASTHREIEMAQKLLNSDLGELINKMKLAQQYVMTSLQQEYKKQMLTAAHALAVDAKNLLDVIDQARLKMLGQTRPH
T8 sequence (P19784 whole entry): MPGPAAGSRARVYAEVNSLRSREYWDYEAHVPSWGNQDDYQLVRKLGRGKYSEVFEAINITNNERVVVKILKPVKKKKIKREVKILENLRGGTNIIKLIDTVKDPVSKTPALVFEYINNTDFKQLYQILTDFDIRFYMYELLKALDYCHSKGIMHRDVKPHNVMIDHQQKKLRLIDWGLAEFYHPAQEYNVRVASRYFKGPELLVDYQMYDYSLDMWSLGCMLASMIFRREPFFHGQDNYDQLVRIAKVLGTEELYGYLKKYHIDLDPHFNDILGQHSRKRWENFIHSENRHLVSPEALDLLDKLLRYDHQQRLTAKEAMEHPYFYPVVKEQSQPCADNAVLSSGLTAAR
T34 sequence (P0C1S8 whole entry): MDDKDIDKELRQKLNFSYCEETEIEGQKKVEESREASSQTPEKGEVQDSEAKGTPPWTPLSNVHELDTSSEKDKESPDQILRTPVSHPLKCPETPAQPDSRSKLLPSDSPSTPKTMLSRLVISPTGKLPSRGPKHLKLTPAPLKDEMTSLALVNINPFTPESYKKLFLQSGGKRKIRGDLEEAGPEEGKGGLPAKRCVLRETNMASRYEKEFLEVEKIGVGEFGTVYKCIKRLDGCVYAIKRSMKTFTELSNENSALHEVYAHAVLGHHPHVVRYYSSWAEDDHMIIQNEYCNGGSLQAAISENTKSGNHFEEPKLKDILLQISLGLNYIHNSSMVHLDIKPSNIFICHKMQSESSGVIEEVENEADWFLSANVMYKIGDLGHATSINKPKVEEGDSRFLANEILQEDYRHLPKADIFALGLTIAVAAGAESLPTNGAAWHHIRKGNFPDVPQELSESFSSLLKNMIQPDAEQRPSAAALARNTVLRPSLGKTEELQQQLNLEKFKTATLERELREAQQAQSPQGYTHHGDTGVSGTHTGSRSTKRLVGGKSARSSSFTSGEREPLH

Compound: Cc1cc(Nc2ccc(F)c(CC3(C(=O)N4CCC(F)(CN5CCN(c6ccc(N7CCC(=O)NC7=O)cn6)CC5)CC4)CCN(Cc4cccc(Cl)c4F)CC3)n2)n[nH]1 [SK5527]
- remaining binding at 0.1 µM ([1]; 100 nM): 97%
- remaining binding at 1 µM ([1]; 1000 nM): 49%
- remaining binding at 0.1 µM ([2]; 100 nM): 100%
- remaining binding at 1 µM ([2]; 1000 nM): 99%
- remaining binding at 0.1 µM ([3]; 100 nM): 91%
- remaining binding at 1 µM ([3]; 1000 nM): 100%
- remaining binding at 0.1 µM ([4]; 100 nM): 93%
- remaining binding at 1 µM ([4]; 1000 nM): 87%
- remaining binding at 0.1 µM ([5]; 100 nM): 100%
- remaining binding at 1 µM ([5]; 1000 nM): 94%
- remaining binding at 0.1 µM ([6]; 100 nM): 83%
- remaining binding at 1 µM ([6]; 1000 nM): 87%
- remaining binding at 0.1 µM ([7]; 100 nM): 88%
- remaining binding at 1 µM ([7]; 1000 nM): 93%
- remaining binding at 0.1 µM ([8]; 100 nM): 100%
- remaining binding at 1 µM ([8]; 1000 nM): 100%
- remaining binding at 0.1 µM ([9]; 100 nM): 100%
- remaining binding at 1 µM ([9]; 1000 nM): 82%
- remaining binding at 0.1 µM ([10]; 100 nM): 96%
- remaining binding at 1 µM ([10]; 1000 nM): 79%
- remaining binding at 0.1 µM ([11]; 100 nM): 100%
- remaining binding at 1 µM ([11]; 1000 nM): 93%
- remaining binding at 0.1 µM ([12]; 100 nM): 90%
- remaining binding at 1 µM ([12]; 1000 nM): 77%
- remaining binding at 0.1 µM ([13]; 100 nM): 100%
- remaining binding at 1 µM ([13]; 1000 nM): 98%
- remaining binding at 0.1 µM ([14]; 100 nM): 82%
- remaining binding at 1 µM ([14]; 1000 nM): 83%
- remaining binding at 0.1 µM ([15]; 100 nM): 100%
- remaining binding at 1 µM ([15]; 1000 nM): 100%
- remaining binding at 0.1 µM ([16]; 100 nM): 59%
- remaining binding at 1 µM ([16]; 1000 nM): 68%
- remaining binding at 0.1 µM ([17]; 100 nM): 100%
- remaining binding at 1 µM ([17]; 1000 nM): 100%
- remaining binding at 0.1 µM ([18]; 100 nM): 97%
- remaining binding at 1 µM ([18]; 1000 nM): 95%
- remaining binding at 0.1 µM ([19]; 100 nM): 87%
- remaining binding at 1 µM ([19]; 1000 nM): 81%
- remaining binding at 0.1 µM ([20]; 100 nM): 95%
- remaining binding at 1 µM ([20]; 1000 nM): 97%
- remaining binding at 0.1 µM ([21]; 100 nM): 99%
- remaining binding at 1 µM ([21]; 1000 nM): 91%
- remaining binding at 0.1 µM ([22]; 100 nM): 71%
- remaining binding at 1 µM ([22]; 1000 nM): 98%
- remaining binding at 0.1 µM ([23]; 100 nM): 60%
- remaining binding at 1 µM ([23]; 1000 nM): 71%
- remaining binding at 0.1 µM ([24]; 100 nM): 100%
- remaining binding at 1 µM ([24]; 1000 nM): 100%
- remaining binding at 0.1 µM ([25]; 100 nM): 90%
- remaining binding at 1 µM ([25]; 1000 nM): 100%
- remaining binding at 0.1 µM ([26]; 100 nM): 81%
- remaining binding at 1 µM ([26]; 1000 nM): 58%
- remaining binding at 0.1 µM ([27]; 100 nM): 100%
- remaining binding at 1 µM ([27]; 1000 nM): 74%
- remaining binding at 0.1 µM ([28]; 100 nM): 100%
- remaining binding at 1 µM ([28]; 1000 nM): 96%
- remaining binding at 0.1 µM ([29]; 100 nM): 100%
- remaining binding at 1 µM ([29]; 1000 nM): 93%
- remaining binding at 0.1 µM ([30]; 100 nM): 79%
- remaining binding at 1 µM ([30]; 1000 nM): 88%
- remaining binding at 0.1 µM ([31]; 100 nM): 73%
- remaining binding at 1 µM ([31]; 1000 nM): 70%
- remaining binding at 0.1 µM ([32]; 100 nM): 92%
- remaining binding at 1 µM ([32]; 1000 nM): 39%
- remaining binding at 0.1 µM ([33]; 100 nM): 99%
- remaining binding at 1 µM ([33]; 1000 nM): 87%
- remaining binding at 0.1 µM ([34]; 100 nM): 79%
- remaining binding at 1 µM ([34]; 1000 nM): 88%
